Source: paper PMC7366380, “Discovery of a Potent and Selective Covalent Inhibitor and Activity-Based Probe for the Deubiquitylating Enzyme UCHL1, with Antifibrotic Activity” (Journal of the American Chemical Society, 2020)
pIC50: −log10 of the molar value. Where “and” joins values, the source holds several entries; their conditions need not be identical. Equal values may be shown once.

How the values were obtained:
in vitro = conditions: human
USP16 = USP16 (Homo sapiens, UniProt Q9Y5T5); experiment: biochemical
USP16, sequence (Q9Y5T5 whole entry, species assumed): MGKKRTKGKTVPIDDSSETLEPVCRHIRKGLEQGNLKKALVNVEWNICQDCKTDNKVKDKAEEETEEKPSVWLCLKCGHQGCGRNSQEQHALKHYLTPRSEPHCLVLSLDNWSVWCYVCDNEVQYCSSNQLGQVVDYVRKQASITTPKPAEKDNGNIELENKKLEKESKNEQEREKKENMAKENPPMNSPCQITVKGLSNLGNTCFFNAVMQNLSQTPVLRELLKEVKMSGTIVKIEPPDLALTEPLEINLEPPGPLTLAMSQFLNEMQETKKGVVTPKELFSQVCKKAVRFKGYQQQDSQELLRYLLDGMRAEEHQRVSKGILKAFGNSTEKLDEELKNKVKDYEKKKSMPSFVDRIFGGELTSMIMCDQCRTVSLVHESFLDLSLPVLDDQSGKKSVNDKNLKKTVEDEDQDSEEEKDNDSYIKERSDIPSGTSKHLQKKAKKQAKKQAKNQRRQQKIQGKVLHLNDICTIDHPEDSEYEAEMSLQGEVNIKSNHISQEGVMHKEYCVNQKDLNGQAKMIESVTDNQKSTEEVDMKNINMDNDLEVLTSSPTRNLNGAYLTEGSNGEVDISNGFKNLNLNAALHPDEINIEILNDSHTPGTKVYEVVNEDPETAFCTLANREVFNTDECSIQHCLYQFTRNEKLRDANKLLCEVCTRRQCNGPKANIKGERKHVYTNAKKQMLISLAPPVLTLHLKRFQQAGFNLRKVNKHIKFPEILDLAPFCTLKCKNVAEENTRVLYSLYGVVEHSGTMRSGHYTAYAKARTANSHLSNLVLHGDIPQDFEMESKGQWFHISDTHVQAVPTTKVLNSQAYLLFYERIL

UCHL1 [1] = target: T1, UCHL1 (Homo sapiens, UniProt P09936); conditions: compared with 1
T1 sequence (P09936 1-223): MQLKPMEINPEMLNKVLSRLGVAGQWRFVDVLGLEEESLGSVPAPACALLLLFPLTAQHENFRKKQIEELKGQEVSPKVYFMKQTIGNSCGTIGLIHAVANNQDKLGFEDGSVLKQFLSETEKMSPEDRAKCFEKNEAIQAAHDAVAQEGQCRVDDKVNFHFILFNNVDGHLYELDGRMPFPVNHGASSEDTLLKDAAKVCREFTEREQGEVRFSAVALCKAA

UCHL1 [2] = target: T1, UCHL1; experiment: Competitive ABPP against ABP 2 in HEK293 cells, in-gel fluorescence and pulldown/UCHL1 immunoblot; assay type: cell-based; set-up: rapidly targets endogenous UCHL1 in cells; endogenous in cells; host or cells: HEK293; conditions: HEK293, compound 1 h, then 2 (20 nM) 10 min
FGFR2 [3] = target: T2, FGFR2 (Homo sapiens, UniProt P21802); experiment: In-cell proteome-wide competitive ABPP, HEK293: FGFR2; conditions: HEK293, compound 60 min, then 2 (20 nM) 10 min
T2 sequence (P21802 22-821): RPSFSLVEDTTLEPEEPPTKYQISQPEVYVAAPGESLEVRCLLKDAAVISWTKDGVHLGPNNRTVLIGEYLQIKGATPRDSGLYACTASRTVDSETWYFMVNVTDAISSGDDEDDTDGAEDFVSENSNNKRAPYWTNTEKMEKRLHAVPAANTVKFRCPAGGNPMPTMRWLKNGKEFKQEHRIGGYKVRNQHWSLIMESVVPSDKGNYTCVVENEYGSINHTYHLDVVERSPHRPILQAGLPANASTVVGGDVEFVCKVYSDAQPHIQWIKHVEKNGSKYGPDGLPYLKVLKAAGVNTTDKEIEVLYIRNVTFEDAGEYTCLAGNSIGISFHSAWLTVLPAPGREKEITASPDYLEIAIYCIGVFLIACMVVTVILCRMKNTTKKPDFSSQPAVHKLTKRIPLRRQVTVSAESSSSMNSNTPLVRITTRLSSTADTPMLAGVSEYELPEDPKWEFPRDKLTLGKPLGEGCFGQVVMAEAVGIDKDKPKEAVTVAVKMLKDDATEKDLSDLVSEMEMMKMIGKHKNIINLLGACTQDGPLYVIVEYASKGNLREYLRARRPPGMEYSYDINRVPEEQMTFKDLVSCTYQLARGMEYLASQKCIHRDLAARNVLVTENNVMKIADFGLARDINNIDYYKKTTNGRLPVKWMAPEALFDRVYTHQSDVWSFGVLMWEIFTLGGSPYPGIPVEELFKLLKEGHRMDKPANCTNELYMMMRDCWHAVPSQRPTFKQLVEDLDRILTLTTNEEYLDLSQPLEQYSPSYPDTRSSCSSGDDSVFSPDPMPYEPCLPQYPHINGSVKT

UCHL1 [4] = target: T1, UCHL1; conditions: HEK293T, 1 h treatment, immunoblot
UCHL1 [5] = target: T1, UCHL1; experiment: UCHL1 inhibitor kinetic analysis (Ub-AMC fluorescence intensity); assay type: biochemical; set-up: rapidly targets endogenous UCHL1 in cells; endogenous in cells; host or cells: HEK293; conditions: UCHL1 3 nM, Ub-AMC 130 nM; read-out: kobs/I
[6] = target: fibroblast growth factor receptor 2 (FGFR2) (Homo sapiens, UniProt P21802); experiment: Quantitative chemical proteomic profiling of ABP 2 in HEK293 cells: FGFR2; conditions: HEK293, 20 nM
fibroblast growth factor receptor 2 (FGFR2), sequence (P21802 22-821): as above

endogenous UCHL1 = target: T3, endogenous UCHL1 (Homo sapiens, UniProt P09936); experiment: ABP 2 target engagement in EA.hy926 and A549 cells (in-gel fluorescence, immunoblot); assay type: cell-based; conditions: 3 h
T3 construct: endogenous in cells; host or cells: EA.hy926 and A549
From the text: Figure S13. ABP 2 target engagement in A549 and EA.hy926 cells. […]
labeled proteins ligated to AzTB capture reagent. (a) Labeled proteins were separated by SDS-PAGE and visualised by in-gel fluorescence. (b) Labeled proteins were enriched by NeutrAvidin magnetic beads. Total lysate (TL), supernatant (SN) an d pulldown (PD) samples […]
Preparation of UCHL1 overexpression cell lysates
After cell lysis and CuAAC […]
relative to the sample volume.
SDS-PAGE and in-gel fluorescence imaging
The protein samples were separated
Biotin affinity enrichment for immunoblot analysis […]
re-suspended as described previously.
Proteins were separated by SDS-
Sample preparation for MS-based proteomic analysis

[7] = ABP 2 stability in cell culture medium (in-gel fluorescence readout); conditions: DMEM medium, 37 °C, then 1 h on HEK293 cells
[8] = test system: FLAG-UCHL1 (WT, C90A, C90S); conditions: HeLa cells overexpressing FLAG-UCHL1, 1 h
[9] = test system: HEK293 cells whole proteome; experiment: Whole proteome analysis (no enrichment) of HEK293 cells treated with ABP 2, TMT; assay type: cell-based, human
[10] = test system: UCHL3, UCHL5, and DUBs from other families; experiment: ABP 2 labeling in HEK293 cells, pulldown and immunoblotting of other DUBs; conditions: HEK293, 1 h, pulldown, immunoblot
FGFR2 [11] = target: T2, FGFR2; experiment: ABP 2 labeling in HEK293 cells, pulldown and FGFR2 immunoblotting; conditions: HEK293, any concentration up to 2 μM
EIF3H = EIF3H (Homo sapiens, UniProt O15372); experiment: Quantitative chemical proteomic profiling of ABP 2 in HEK293 cells: EIF3H; conditions: for Log2 reporter intensity values (Log2FC, DMSO substract): EIF3H, listed as ABP 2
UCHL1 [12] = target: T1, UCHL1; experiment: Quantitative chemical proteomic profiling of ABP 2 in HEK293 cells (AzRB enrichment, TMT): UCHL1; conditions: for Log2 reporter intensity values (Log2FC, DMSO substract): UCHL1, listed as ABP 2
[13] = whole proteome, no enrichment, HEK293, 0.02 μM vs DMSO, 1 h
[14] = whole proteome, no enrichment, HEK293, 0.2 μM vs DMSO, 1 h
[15] = whole proteome, no enrichment, HEK293, 2 μM vs DMSO, 1 h
[16] = 200 nM, 180 min, replicates A,C
[17] = HEK293, 2 nM vs DMSO, 1 h, enrichment, TMT, n=3
[18] = HEK293, 20 nM vs DMSO, 1 h, enrichment, TMT, n=3
[19] = HEK293, 200 nM vs DMSO, 1 h, enrichment, TMT, n=3

`CC(=O)O/N=C1\C(=O)N(Cc2cc(Cl)ccc2Cl)c2ccc(Cl)cc21` [LDN-57444, reference compound] gave an EC50 at 3 days (in vitro) of roughly 9.2 µM and a pIC50 (USP16) of less than 5.00.
For `N#CN1CCC[C@@H]1C(=O)N1CCc2c(-c3c[nH]c4ncccc34)cccc21` [Compound 3], the “fold less active than 1 (UCHL1 FP assay)” value (UCHL1 [1]) was greater than 1000 fold and the “competition for UCHL1 labeling by ABP 2 (immunoblot)” value (UCHL1 [2]) was “no competition”.
For `N#CN1CCC[C@H]1C(=O)N1CCc2c(-c3c[nH]c4ncccc34)cccc21` [Compound 1], the “FGFR2 response in proteome-wide competitive ABPP” value (FGFR2 [3]) was “responds”, the “in-cell competition for HA-Ub-VME labeling of UCHL1” value (UCHL1 [4]) was “concentration-dependent competition” and the “competition for UCHL1 labeling by ABP 2 (immunoblot)” value (UCHL1 [2]) was “dose-dependent UCHL1 labeling reduction”. For the same compound, the kinact/KI (UCHL1 [5]) was 7400 M⁻¹ s⁻¹ and the pIC50 (USP16) was less than 5.00.
In the case of `C#Cc1cnc2[nH]cc(-c3cccc4c3CCN4C(=O)[C@@H]3CCCN3C#N)c2c1` [Compound 2], the “FGFR2 enrichment (chemical proteomics)” value [6] was “significantly enriched”, the “profiling of endogenous UCHL1 activity in other cell types” value (endogenous UCHL1) was “excellent selectivity” and the “stability in media without loss of activity” value [7] was greater than 72 h. The “labeling of WT versus C90A/C90S UCHL1” value [8] was “only WT UCHL1 is labeled”, the “abundance change in whole proteome analysis” value ([9]; HEK293, 20, 200 or 2000 nM, 60 min) was “No significant abundance change” and the “Log2 t-test Difference, AAAS, ABP 2 -0.02 μM” value [9, 13] was 0.04017. For the same compound, the “Log2 t-test Difference, AACS, ABP 2 -0.02 μM” value [9, 13] was -0.01983, the “Log2 t-test Difference, AAGAB, ABP 2 -0.02 μM” value [9, 13] was 0.05728 and the “Log2 t-test Difference, AAMP, ABP 2 -0.02 μM” value [9, 13] was -0.03986. The “Log2 t-test Difference, AAAS, ABP 2 -0.2 μM” value [9, 14] was -0.001777, the “Log2 t-test Difference, AACS, ABP 2 -0.2 μM” value [9, 14] was 0.03866 and the “Log2 t-test Difference, AAGAB, ABP 2 -0.2 μM” value [9, 14] was 0.002598. For the same compound, the “Log2 t-test Difference, AAMP, ABP 2 -0.2 μM” value [9, 14] was 0.04194, the “Log2 t-test Difference, AAAS, ABP 2 -2 μM” value [9, 15] was 0.07218 and the “Log2 t-test Difference, AACS, ABP 2 -2 μM” value [9, 15] was 0.09255. For the same compound, the “Log2 t-test Difference, AAGAB, ABP 2 -2 μM” value [9, 15] was 0.1494, the “Log2 t-test Difference, AAMP, ABP 2 -2 μM” value [9, 15] was -0.01217 and the “in-cell competition for HA-Ub-VME labeling of UCHL1” value (UCHL1 [4]) was “concentration-dependent competition”. For the same compound, the “labeling of UCHL3, UCHL5, and DUBs from other families” value [10] was “minimal or no detectable labeling”, the “FGFR2 enrichment by pulldown and immunoblotting” value (FGFR2 [11]) was “barely detectable” and the “Log2 reporter intensity values (Log2FC, DMSO substract)” value (shortened to “Log2 reporter intensity values”) (EIF3H; 2 nM, 60 min, replicates A-C) was 0.03927 and 0.1861 and 0.1127. For the same compound, the “Log2 reporter intensity values” value (EIF3H; 20 nM, 10 min, replicates B,C) was 0.003189 and 0.05275, the “Log2 reporter intensity values” value (EIF3H; 20 nM, 60 min, replicates A-C) was 0.08479 and -0.05372 and 0.1466 and the “Log2 reporter intensity values” value (EIF3H; 20 nM, 180 min, replicates A-C) was -0.0501 and -0.006928 and -0.004662. The “Log2 reporter intensity values” value (EIF3H; 200 nM, 10 min, replicates B,C) was 0.1905 and -0.004432, the “Log2 reporter intensity values” value (EIF3H; 200 nM, 60 min, replicates A-C) was 0.08499 and -0.02572 and 0.1313 and the “Log2 reporter intensity values” value (EIF3H; [16]) was -0.03275 and 0.07608. For the same compound, the “Log2 t-test Difference, EIF3H, 2 nM” value (EIF3H; [17]) was 0.1127, the “Log2 t-test Difference, EIF3H, 20 nM” value (EIF3H; [18]) was 0.05921 and the “Log2 t-test Difference, EIF3H, 200 nM” value (EIF3H; [19]) was 0.06352. For the same compound, the “Log2 t-test Difference, UCHL1, 2 nM” value (UCHL1 [12]; [17]) was 1.208, the “Log2 t-test Difference, UCHL1, 20 nM” value (UCHL1 [12]; [18]) was 2.871 and the “Log2 t-test Difference, UCHL1, 200 nM” value (UCHL1 [12]; [19]) was 3.757. The “UCHL1 enrichment (chemical proteomics)” value (UCHL1 [12]; HEK293, 2, 20 or 200 nM, 10, 60 or 180 min) was “significantly enriched”, the “Log2 reporter intensity values” value (UCHL1 [12]; 2 nM, 60 min, replicates A-C) was 1.19 and 1.075 and the “Log2 reporter intensity values” value (UCHL1 [12]; 20 nM, 10 min, replicates B,C) was 2.249 and 2.237. The “Log2 reporter intensity values” value (UCHL1 [12]; 20 nM, 60 min, replicates A-C) was 3.049 and 2.943 and 2.622, the “Log2 reporter intensity values” value (UCHL1 [12]; 20 nM, 180 min, replicates A-C) was 2.8835 and 2.817 and 2.539 and the “Log2 reporter intensity values” value (UCHL1 [12]; 200 nM, 10 min, replicates B,C) was 3.8701 and 3.284. For the same compound, the “Log2 reporter intensity values” value (UCHL1 [12]; 200 nM, 60 min, replicates A-C) was 3.775 and 4.082 and 3.414 and the “Log2 reporter intensity values” value (UCHL1 [12]; [16]) was 3.588 and 3.369.
